Reference: US8785470B2, “Heterocyclic compounds and uses thereof” (Infinity Pharmaceuticals, Inc., priority 2011, dated 2014)
Read-outs that look alike come from different tables or passages of the source.

Experiments:
[1] = tested on: NZB/W model; details: profilactic and therapeutic model; reductions in auto-antibody production, kidney damage, improvements in survival; cited from earlier work
[2] = target: T1, PI3Kβ (Homo sapiens, UniProt P42338); test: PI3-Kinase HTRF assay, PI3Kβ; type: biochemical; details: bins Greater than 10 μM and Greater than 1 μM to 10 μM; 10 μM ATP, PIP2 at 10 μM
T1 construct: purchased Millipore Corporation 14-603-K
Procedure, shortened: (§1)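 Purified recombinant human PI3Kα, β, γ or δ (0.25-0.3 μg/ml) preincubated 15 min at room temperature with compound (2% DMSO) and 10 μM PIP2, then reacted 1 h with 10 μM ATP. PIP3 product detected by competitive HTRF (GST-PH domain/biotin-PIP3); IC50 from 12-point curves, 20 μM to 0.1 nM, by nonlinear regression.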

[3] = tested on: Balb/c splenic B cells; test: B cell activation and proliferation assay; type: cell-based; details: Mus musculus, column bins 1 μM to 100 nM (given as 100-1000) and Less than 100 nM, read-out: B cell proliferation EC50
Procedure, shortened: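 Balb/c splenic B cells were isolated by Ficoll gradient and magnetic separation, plated at 50.000 cells/well in RPMI/10% FBS, and pre-incubated with compound for 30 min at 37° C (0.2% DMSO). Cells were stimulated for 72 h with a cocktail of 10 μg/ml LPS or 5 μg/ml anti-mouse IgM F(ab′)2 plus 2 ng/ml IL4. Alamar Blue fluorescence (560Ex/590Em) after 5 h gave IC50 or EC50.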

[4] = tested on: phospho-AKT in RAJI cells (PI3Kδ); test: PI3Kδ selective assay, phospho-AKT in RAJI cells; type: cell-based; details: RAJI cells stimulated with anti-human IgM; read-out: IC50 for phospho-AKT, RAJI cell model
Procedure, shortened: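 Serum-starved RAJI B-lymphoma cells stimulated with anti-human IgM to trigger B-cell receptor signaling; compound effect read as reduction of phospho-AKT, for example detected with phospho-AKT antibodies.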

[5] = tested on: phospho-AKT in RAW 264.7 cells (PI3Kγ); test: PI3Kγ selective assay, phospho-AKT in RAW 264.7 cells; type: cell-based; details: Mus musculus, RAW264.7, stimulated with C5a, read-out: IC50 for phospho-AKT, RAW 264.7 cell model
Procedure, shortened: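 Serum-starved RAW 264.7 macrophages are stimulated with the GPCR agonist C5a and treated with compound before, with or after stimulation. Inhibition is read as reduced C5a-induced phospho-AKT, detected for example with phospho-AKT antibodies.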

[6] = tested on: phospho-AKT in SKOV-3 cells (PI3Kα); test: PI3Kα selective assay, phospho-AKT in SKOV-3 cells; type: cell-based; details: Homo sapiens, SK-OV-3, read-out: IC50 for phospho-AKT, SKOV-3 cell model
From the text: (§2) A compound's ability in selectively inhibiting PI3Kα can be assessed using SKOV-3 cells, i.e., human ovarian carcinoma cell line. Briefly, SKOV-3 cells, in which mutant PI3Kα is constitutively active, can be treated with test compounds. Test compounds' ability to inhibit AKT phosphorylation in SKOV-3 cells, therefore, is indicative of selective inhibition of PI3Kα. Thus, by monitoring the reduction of phospho-AKT in SKOV-3 cells (using for example, phospho-AKT antibodies), a compound's potential efficacy in selectively inhibiting PI3Kα can be assessed.
Certain compounds provided herein (e.g., Compounds 5, 49, 138, 326, 328, 354, 359, 389, and 391) were tested in SKOV-3 cell model using procedures as described above.

[7] = tested on: phospho-AKT in 786-O cells (PI3Kβ); test: PI3Kβ selective assay, phospho-AKT in 786-O cells; type: cell-based; details: Homo sapiens, 786-0, read-out: IC50 for phospho-AKT, 786-O cell model
From the text: as §2, with “PI3Kβ” for “PI3Kα”, “786-O” for “SKOV-3”, “kidney” for “ovarian”, “PI3Kβ” for “mutant PI3Kα”, “PI3β.” for “PI3Kα.”
Certain compounds provided herein (e.g., Compounds 5, 49, 138, 326, 328, 354, 359, 389, and 391) were tested in 786-O cell model using procedures as described above.

[8] = target: T2, PI3Kα (Homo sapiens, UniProt P42336); test: PI3-Kinase HTRF assay, PI3Kα; type: biochemical; details: bins Greater than 10 μM and Greater than 1 μM to 10 μM; 10 μM ATP, PIP2 at 10 μM; read-out: IC50 P13Kα
T2 construct: purchased Millipore Corporation 14-602-K
Procedure, shortened: as §1

[9] = target: T3, PI3Kγ (Homo sapiens, UniProt P48736); test: PI3-Kinase HTRF assay, PI3Kγ; type: biochemical; details: bins Greater than 10 μM and Greater than 1 μM to 10 μM; 10 μM ATP, PIP2 at 10 μM
T3 construct: purchased Millipore Corporation 14-558-K
From the text: (§3) A PI3-Kinase HTRF® assay kit (cat No. 33-016) purchased from Millipore Corporation was used to screen compounds provided herein. This assay used specific, high affinity binding of the GRPI pleckstrin homology (PH) domain to PIP3, the product of a Class 1A or 1B PI3 Kinase acting on its physiological substrate PIP2. During the detection phase of the assay, a complex was generated between the GST-tagged PH domain and biotinylated short chain PIP3. The biotinylated PIP3 and the GST-tagged PH domain recruited fluorophores (Streptavidin-Allophycocyanin and Europium-labeled anti-GST respectively) to form the fluorescence resonance energy transfer (FRET) architecture, generating a stable time-resolved FRET signal. The FRET complex was disrupted in a competitive manner by non-biotinylated PIP3, a product formed in the PI3 Kinase assay.
(§4) PI3 Kinase α, β, γ and δ activity was assayed using the PI3 Kinase HTRF® assay kit (catalogue No. 33-016) purchased from Millipore Corporation. Purified recombinant PI3Kα (catalogue No. 14-602-K), PI3Kβ (catalogue No. 14-603-K), PI3Kγ (catalogue No. 14-558-K) and PI3Kδ (catalogue No. 14-604-K) were obtained from Millipore Corporation. Purified recombinant PI3K enzyme was used to catalyze the phosphorylation of phosphatidylinositol 4,5-bisphosphate (PIP2 at 10 μM) to phosphatidylinositol 3,4,5-trisphosphate (PIP3) in the presence of 10 μM ATP. The assay was carried out in 384-well format and detected using a Perkin Elmer EnVision Xcite Multilabel Reader. Emission ratios were converted into percent inhibitions and imported into GraphPad Prism software. The concentration necessary to achieve inhibition of enzyme activity by 50% (IC50) was calculated using concentrations ranging from 20 μM to 0.1 nM (12-point curve). IC50 values were determined using a nonlinear regression model available in GraphPad Prism 5. […]

[10] = target: T4, PI3Kδ (Homo sapiens, UniProt O00329); test: PI3-Kinase HTRF assay, PI3Kδ; type: biochemical; details: bins Greater than 10 μM and Greater than 1 μM to 10 μM; 10 μM ATP, PIP2 at 10 μM
T4 construct: purchased Millipore Corporation 14-604-K
From the text: as §3, §4

[11] = tested on: B6.Slez.Sle3z model; details: cited from earlier work
[12] = PBS at pH 7.4, 37° C., 24 hours; cited from earlier work
[13] = tested on: leukemic cells from p190 transduced cultures; details: about 70 mg/kg twice daily; cited from earlier work
[14] = control or reference compounds, 5 μM; cited from earlier work
[15] = ranges less than 100 nM and between 100 nM and 1 μM (given as 100-1000)
[16] = ranges between 1 μM and 10 μM and greater than 10 μM
[17] = range between 100 nM and 1 μM (given as 100-1000)

T2 sequence (P42336 whole entry): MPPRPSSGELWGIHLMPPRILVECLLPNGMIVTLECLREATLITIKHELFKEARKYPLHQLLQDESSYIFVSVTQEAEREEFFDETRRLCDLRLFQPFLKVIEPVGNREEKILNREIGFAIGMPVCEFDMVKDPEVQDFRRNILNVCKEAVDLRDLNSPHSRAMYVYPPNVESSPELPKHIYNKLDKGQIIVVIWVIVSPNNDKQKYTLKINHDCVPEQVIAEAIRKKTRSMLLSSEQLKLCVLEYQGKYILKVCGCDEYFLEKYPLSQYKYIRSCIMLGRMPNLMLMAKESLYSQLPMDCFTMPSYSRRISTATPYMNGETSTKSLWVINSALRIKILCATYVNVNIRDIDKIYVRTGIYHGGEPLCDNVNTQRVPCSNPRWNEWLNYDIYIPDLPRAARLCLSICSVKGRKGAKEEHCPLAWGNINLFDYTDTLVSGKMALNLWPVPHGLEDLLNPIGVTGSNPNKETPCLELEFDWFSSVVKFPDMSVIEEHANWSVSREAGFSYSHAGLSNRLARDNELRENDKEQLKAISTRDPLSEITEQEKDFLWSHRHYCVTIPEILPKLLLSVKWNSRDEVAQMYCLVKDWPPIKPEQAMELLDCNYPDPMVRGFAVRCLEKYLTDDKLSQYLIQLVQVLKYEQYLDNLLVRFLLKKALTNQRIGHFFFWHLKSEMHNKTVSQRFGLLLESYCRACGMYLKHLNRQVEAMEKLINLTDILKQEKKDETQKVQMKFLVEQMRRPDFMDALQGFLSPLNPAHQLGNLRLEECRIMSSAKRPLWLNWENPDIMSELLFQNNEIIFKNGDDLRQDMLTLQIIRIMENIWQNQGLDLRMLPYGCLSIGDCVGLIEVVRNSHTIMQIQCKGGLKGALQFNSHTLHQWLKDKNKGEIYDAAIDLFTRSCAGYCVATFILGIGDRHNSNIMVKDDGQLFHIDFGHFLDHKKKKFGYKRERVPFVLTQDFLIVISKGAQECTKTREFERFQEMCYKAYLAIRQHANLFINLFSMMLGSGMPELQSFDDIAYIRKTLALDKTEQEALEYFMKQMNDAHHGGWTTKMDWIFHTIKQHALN
T2 sequence (P27986 whole entry partner): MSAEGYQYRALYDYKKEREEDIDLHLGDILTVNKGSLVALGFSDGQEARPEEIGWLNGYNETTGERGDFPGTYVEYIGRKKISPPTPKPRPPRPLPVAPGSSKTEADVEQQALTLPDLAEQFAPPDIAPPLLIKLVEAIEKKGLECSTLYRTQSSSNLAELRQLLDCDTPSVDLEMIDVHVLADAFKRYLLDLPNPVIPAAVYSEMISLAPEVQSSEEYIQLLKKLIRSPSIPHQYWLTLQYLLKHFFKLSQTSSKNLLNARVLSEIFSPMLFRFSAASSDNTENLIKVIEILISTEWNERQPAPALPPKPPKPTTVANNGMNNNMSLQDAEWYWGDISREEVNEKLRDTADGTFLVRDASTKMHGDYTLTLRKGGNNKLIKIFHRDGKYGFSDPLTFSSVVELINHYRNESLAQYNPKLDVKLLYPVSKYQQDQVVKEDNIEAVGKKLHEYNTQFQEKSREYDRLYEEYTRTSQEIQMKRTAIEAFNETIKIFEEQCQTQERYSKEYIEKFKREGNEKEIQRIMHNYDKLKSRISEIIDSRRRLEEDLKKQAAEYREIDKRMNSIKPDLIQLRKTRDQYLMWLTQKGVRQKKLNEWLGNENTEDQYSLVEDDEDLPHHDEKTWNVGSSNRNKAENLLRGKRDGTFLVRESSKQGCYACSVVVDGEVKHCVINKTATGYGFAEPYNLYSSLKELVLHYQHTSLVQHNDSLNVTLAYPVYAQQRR
T1 sequence (P42338 whole entry): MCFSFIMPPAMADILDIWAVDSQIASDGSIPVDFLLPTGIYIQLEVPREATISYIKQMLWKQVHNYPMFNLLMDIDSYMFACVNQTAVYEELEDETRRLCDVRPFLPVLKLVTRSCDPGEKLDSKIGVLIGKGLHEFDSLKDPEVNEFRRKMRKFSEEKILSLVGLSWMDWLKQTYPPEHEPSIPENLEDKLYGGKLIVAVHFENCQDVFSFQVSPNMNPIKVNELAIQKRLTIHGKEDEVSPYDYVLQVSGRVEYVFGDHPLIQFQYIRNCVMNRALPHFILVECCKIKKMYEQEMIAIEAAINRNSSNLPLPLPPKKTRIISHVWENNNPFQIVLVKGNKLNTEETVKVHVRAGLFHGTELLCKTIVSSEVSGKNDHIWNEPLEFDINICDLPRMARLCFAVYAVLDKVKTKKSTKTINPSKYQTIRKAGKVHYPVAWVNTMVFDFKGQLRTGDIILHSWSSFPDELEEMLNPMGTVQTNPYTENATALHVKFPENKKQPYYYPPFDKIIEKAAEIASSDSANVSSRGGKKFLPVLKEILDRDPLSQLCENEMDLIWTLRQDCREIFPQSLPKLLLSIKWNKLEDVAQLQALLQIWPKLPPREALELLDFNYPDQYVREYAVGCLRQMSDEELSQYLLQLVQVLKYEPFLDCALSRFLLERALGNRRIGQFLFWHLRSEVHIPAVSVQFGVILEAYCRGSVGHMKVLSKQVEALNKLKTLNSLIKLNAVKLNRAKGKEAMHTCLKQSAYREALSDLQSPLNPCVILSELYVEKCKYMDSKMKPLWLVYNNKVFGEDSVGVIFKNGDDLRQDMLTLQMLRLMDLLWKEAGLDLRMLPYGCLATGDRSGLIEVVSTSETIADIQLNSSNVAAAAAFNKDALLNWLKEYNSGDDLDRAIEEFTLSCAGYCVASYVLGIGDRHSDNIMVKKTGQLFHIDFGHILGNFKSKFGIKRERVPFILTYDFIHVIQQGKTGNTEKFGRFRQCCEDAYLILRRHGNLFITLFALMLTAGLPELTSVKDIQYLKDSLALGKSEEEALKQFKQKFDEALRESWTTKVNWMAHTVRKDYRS
T1 sequence (P27986 whole entry partner): as the sequence (P27986 whole entry partner) above
T3 sequence (P48736 whole entry): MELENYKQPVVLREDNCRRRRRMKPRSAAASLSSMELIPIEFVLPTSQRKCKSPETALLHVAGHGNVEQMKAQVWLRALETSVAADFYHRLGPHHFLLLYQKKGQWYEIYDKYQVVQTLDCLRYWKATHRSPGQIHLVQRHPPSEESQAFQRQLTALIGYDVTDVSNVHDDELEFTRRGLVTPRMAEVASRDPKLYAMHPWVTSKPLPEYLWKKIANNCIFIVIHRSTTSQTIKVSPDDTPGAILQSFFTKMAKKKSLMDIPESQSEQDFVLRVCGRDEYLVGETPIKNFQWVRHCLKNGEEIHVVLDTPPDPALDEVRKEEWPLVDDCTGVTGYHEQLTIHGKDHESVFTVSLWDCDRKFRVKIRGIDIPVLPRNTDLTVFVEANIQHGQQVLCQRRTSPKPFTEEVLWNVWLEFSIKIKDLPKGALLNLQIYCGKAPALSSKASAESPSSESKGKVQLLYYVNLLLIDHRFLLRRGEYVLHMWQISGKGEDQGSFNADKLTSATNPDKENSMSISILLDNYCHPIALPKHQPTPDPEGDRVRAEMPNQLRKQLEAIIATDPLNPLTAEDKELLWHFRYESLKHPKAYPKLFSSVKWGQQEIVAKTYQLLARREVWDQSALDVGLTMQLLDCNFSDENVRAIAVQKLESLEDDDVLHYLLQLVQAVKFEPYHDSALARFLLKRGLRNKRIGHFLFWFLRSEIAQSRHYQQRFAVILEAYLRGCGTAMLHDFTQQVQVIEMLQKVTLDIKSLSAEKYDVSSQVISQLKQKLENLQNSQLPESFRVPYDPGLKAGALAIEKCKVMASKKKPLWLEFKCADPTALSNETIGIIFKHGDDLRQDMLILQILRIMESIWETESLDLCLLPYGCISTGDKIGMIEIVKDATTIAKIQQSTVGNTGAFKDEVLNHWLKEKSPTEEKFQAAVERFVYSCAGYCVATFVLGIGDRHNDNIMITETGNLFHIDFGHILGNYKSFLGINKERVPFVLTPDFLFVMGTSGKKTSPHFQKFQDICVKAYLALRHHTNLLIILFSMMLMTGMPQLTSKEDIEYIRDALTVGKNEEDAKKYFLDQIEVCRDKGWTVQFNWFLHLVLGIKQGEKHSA
T4 sequence (O00329 whole entry): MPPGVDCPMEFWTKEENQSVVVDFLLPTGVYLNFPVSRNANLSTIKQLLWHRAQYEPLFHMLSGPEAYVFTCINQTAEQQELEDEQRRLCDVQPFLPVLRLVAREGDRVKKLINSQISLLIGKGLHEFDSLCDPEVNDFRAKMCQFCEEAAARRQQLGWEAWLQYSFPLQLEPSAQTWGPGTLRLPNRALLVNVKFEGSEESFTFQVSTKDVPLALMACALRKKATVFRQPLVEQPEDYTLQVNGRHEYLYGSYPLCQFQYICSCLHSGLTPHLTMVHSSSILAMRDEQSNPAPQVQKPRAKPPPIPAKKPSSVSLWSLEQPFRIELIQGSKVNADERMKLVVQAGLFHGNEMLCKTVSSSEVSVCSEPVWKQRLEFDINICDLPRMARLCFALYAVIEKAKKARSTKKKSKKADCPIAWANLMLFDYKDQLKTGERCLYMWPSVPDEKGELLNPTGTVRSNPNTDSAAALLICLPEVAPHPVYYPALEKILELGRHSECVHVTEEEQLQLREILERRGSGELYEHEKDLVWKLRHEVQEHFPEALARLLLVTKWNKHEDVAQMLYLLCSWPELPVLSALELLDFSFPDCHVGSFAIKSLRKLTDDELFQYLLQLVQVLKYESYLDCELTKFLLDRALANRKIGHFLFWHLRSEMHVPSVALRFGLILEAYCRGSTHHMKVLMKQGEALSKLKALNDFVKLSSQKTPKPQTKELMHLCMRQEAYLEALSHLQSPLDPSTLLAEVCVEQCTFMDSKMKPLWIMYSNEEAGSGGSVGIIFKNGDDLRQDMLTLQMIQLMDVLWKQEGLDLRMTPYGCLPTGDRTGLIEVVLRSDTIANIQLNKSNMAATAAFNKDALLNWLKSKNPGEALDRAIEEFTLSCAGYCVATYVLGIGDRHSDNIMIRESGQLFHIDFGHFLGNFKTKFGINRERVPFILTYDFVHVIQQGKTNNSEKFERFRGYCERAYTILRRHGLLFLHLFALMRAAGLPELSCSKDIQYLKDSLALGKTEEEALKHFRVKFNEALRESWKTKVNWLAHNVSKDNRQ
T4 sequence (P27986 whole entry partner): as the sequence (P27986 whole entry partner) above

Structure (SMILES) | IC50 [2] [µM] | IC50 [4] [µM] | IC50 [5, 15] [µM] | IC50 [6, 16] [µM] | IC50 [7, 16] [µM] | IC50 [8] [µM] | other results
CC(C)C[C@H](NC(=O)[C@H](Cc1ccccc1)NC(=O)c1cnccn1)B(O)O [Bortezimib, bortezomib] |  |  |  |  |  |  | blocking disease in the NZB/W model [1]: effective at blocking disease
CCOc1nc(-c2cnc(N)nc2N[C@@H](C)c2cc3cccc(-c4ccc(=O)n(C)c4)c3c(=O)n2-c2ccccc2)cs1 [Compound 138] | 1 to 10 | < 0.1 | < 0.1 |  | 1 to 10 | 1 to 10 | IC50 [6, 17]: 0.1 to 1 µM
CC(C)n1c([C@H](C)Nc2nc(N)ncc2C#N)cc2cccc(-c3ccc(=O)n(C)c3)c2c1=O [Compound 326] | 1 to 10 | < 0.1 | 0.1 to 1 | 1 to 10 |  | 1 to 10 | IC50 [7, 17]: 0.1 to 1 µM
CO[C@H]1C[C@@H]2CC[C@@H](C)[C@@](O)(O2)C(=O)C(=O)N2CCCC[C@H]2C(=O)O[C@H]([C@H](C)C[C@@H]2CC[C@@H](OCCO)[C@H](OC)C2)CC(=O)[C@H](C)/C=C(\C)[C@@H](O)[C@@H](OC)C(=O)[C@H](C)C[C@H](C)/C=C/C=C/C=C/1C [RAD001, everolimus] |  |  |  |  |  |  | lupus symptoms [11]: ameliorate lupus symptoms
O=C(O)CCCc1ccc(N(CCCl)CCCl)cc1 [chlorambucil] |  |  |  |  |  |  | chemical stability [12]: largely hydrolyzed
Cc1ccc(NC(=O)c2ccc(CN3CCN(C)CC3)cc2)cc1Nc1nccc(-c2cccnc2)n1 [imatinib] |  |  |  |  |  |  | leukemogenesis [13]: delay but not cure leukemogenesis
CC(C)[N+](C)(CCOC(=O)C1c2ccccc2Oc2ccccc21)C(C)C [propantheline] |  |  |  |  |  |  | plasma stability [14]: intermediate plasma stability
CCCOc1cc(N)ccc1C(=O)OCCN(CC)CC [propoxycaine] |  |  |  |  |  |  | plasma stability [14]: low plasma stability

Now from value to compound, other results behind:

IC50 [2] [µM] | IC50 [4] [µM] | IC50 [5, 15] [µM] | IC50 [6, 16] [µM] | IC50 [7, 16] [µM] | IC50 [8] [µM] | Structure (SMILES) | other results
1 to 10 | < 0.1 | < 0.1 | 1 to 10 | 1 to 10 |  | COc1cc(-c2cccc3cc([C@H](C)Nc4nc(N)ncc4C#N)n(-c4ccccc4)c(=O)c23)ccn1 [Compound 49] | EC50 [3]: < 0.1 µM
 | < 0.1 | 0.1 to 1 |  | 1 to 10 |  | Cc1ncc(-c2cccc3cc([C@H](C)Nc4nc(N)ncc4C#N)n(C(C)C)c(=O)c23)cn1 [Compound 328] | IC50 [9]: 1 to 10 µM; IC50 [6, 17]: 0.1 to 1 µM
 | < 0.1 |  | > 10 | 1 to 10 |  | C[C@H](Nc1nc(N)ncc1C#N)c1cc2cccc(Cl)c2c(C(=O)NC2CCOCC2)n1 [Compound 354] | IC50 [10]: 1 to 10 µM; IC50 ([5]; range between 1 μM and 10 μM): 1 to 10 µM
1 to 10 | < 0.1 |  | 1 to 10 |  | 1 to 10 | CC(C)n1c([C@H](C)Nc2ncnc(N)c2C#N)cc2cccc(-c3ccc(=O)n(C)c3)c2c1=O [Compound 359] | IC50 ([5]; range between 1 μM and 10 μM): 1 to 10 µM; IC50 [7, 17]: 0.1 to 1 µM
1 to 10 | < 0.1 | 0.1 to 1 | 1 to 10 | 1 to 10 | 1 to 10 | COc1ncc(-c2cccc3cc([C@H](C)Nc4nc(N)ncc4-c4cncs4)n(-c4ccccc4)c(=O)c23)cn1 [Compound 389] | 
